According to patent US6737241B2, “Methods for screening for transdominant intracellular effector peptides and RNA molecules” (Rigel Pharmaceuticals, Inc., priority 1996, dated 2004):

Columns and labels:
[1] = system: NIH 3T3 cells; test: Staurosporine induction of apoptosis (ethidium bromide/acridine orange double staining); type: cell-based; conditions: 1 uM in serum-free media, within 24 hours
Experimental: D. Staurosporine selection. Staurosporine, an alkaloid from Streptomyces sp., is a potent, broad spectrum inhibitor of protein kinases which binds the ATP site. Addition of 1 uM staurosporine in serum-free media to NIH 3T3 cells induced >99% apoptosis within 24 hours, as determined by ethidium bromide/acridine orange double staining as described for the Fas selection.

[2] = system: 3T3 cells; test: Apotag / TUNEL assay of apoptosis induced by hTNFa and cycloheximide; type: cell-based; conditions: expressed in 3T3 cells from an MSCV retroviral promoter; hTNFa 50 ng/ml + cycloheximide 6 hours, harvested at 24 hours
Experimental: Apotag assay: TUNEL (TdT-mediated dUTP-fluorescein nick end labeling) Boehringer Mannheim kit, catalog no. 168795
3T3 cells transiently infected with either MFGLacZ, BCL2, or […] plasmids were grown to 50% confluence at the time of induction with hTNFa (50 ng/ml media) and cycloheximide ([…] media) for 6 hours. Cells were washed at 6 hours and harvested at 24 hours after induction. Cells were harvested by pooling all media from cells (in order to collect any apoptotic, floating cells) with the washings and trypsinized cells. The cells were spun and washed with PBS containing 1% BSA, transferred to an eppendorf tube and the wash repeated once.
Cells were fixed in 4% paraformaldehyde at room temperature for 30 minutes, washed in PBS/BSA, then resuspended in permeabilisation buffer for 2 minutes on ice. After permeabilisation, cells were washed twice in PBS/BSA and incubated at 37° C. for 1 hour with labeling buffer containing fluoresceinated dUTP, unlabeled nucleotide mixture and terminal deoxynucleotidyl transferase (TdT). Cells were washed twice with PBS/BSA, resuspended in PBS/BSA and transferred to a FACS tube for analysis. Samples were also visualized under the fluorescence microscope.

[3] = system: 3T3 cells; test: Propidium iodide staining of fixed cells to assay for apoptosis (TNF/CXH); type: cell-based; conditions: expressed in 3T3 cells
Experimental: Propidium Iodide staining of fixed cells to assay for apoptosis: (Sherwood and Schimke, Methods in Cell Biology, 46:77-87, 1995) 3T3 cells transiently infected with MFGLacZ, Bcl2, or CPP32 were plated and treated with TNF/CXH as described above, and harvested and washed as above. Cells were then resuspended in 70% ethanol in PBS at 4° C. and kept at 4° C. overnight. When ready to FACS, cells were stained with propidium iodide as follows. Cells were spun at 14,000 RPM for 10 seconds and washed once with PBS/BSA. Cells were then resuspended in […] staining solution (PBS with 50 mg/ml RNase A (DNase-free) with 10 mg/ml propidium iodide) and incubated at 37° C for at least 1 hour. Cells were then pelleted and resuspended in PBS/BSA solution containing 10 mg/ml propidium iodide and analyzed by FACS scanning.

[4] = biological target: T1, CPP32 (Mus musculus, UniProt P70677); test: Enzymatic assay of CPP32 activity (DEVD-pNA cleavage) in extracts of TNF/CXH-stimulated 3T3 cells; type: biochemical; conditions: cell extracts, 30 min to 4 hours after TNF/CXH; control WIN cells rise at 2 hours
T1 construct: endogenous in cells; host or cells: 3T3 cells (lysate after TNF/cycloheximide stimulation)
T1 sequence (P70677 29-175 limits assumed): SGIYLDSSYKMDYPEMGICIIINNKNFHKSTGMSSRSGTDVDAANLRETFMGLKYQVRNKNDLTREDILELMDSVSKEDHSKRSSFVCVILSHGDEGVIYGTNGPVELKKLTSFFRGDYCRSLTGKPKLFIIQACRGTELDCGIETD
T1 sequence (P70677 176-277 limits assumed): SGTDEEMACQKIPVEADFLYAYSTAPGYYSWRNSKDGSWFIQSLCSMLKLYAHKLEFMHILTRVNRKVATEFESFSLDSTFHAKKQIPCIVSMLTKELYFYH
Experimental: Enzymatic Assay of CPP32 activity: CPP32 Assay Kit: Clontech CPP32 Colorimetric Assay Kit (Cat. No. K2027-2): 3T3 cells were infected with the vectors described in Part I, section C, and selected in G418 media prior to assay. 6-well plates of 3T3 cells at near confluence were stimulated with TNF/CXH as described above and harvested at 30 min, 1, 2 and 4 hours after stimulation as follows. Cells were trypsinized and collected as described above. After transfering to an eppendorf tube, cells were spun and resuspended in […] chilled Cell Lysis Buffer. Cells were incubated for 10 minutes on ice, then […] of 2× Reaction Buffer containing DTT was added to each tube. 5 ml of the calorimetric conjugated substrate (DEVD-paranitroanilide, 50 mM final concentration) was added to each tube and incubated at 37° C. for 30 minutes. Samples were transferred to a 96 well plate and read on a spectrophotometer at O.D. of 405. […] By 4 hours, cells have begun to die and the activity is decreased. […] In the case of BCL2, it should be due to inhibition of apoptosis upstream of the enzyme. With CPP32 inhibitor peptide, it should be due to direct inhibition of enzymatic activity. These in vitro results are consistent with the results seen in cell death assays described above.

[5] = system: PKCa; test: PKCa localization by immunohistochemistry after PMA stimulation; type: cell-based, Murine
[6] = system: cells; test: Staurosporin induced apoptosis in cells expressing the peptide with a retrovirus; type: cell-based; conditions: peptide expressed in cells with a retrovirus
[7] = system: Jurkat EcoR cells; test: IgM anti-Fas (CH-11) selection of retrovirus-transduced Jurkat cells; conditions: peptide expressed in cells with a retrovirus
Experimental: A sterile Acrodisc 0.45 micron syringe filter (Gelman Sciences) was attached to the end of a 10 ml sterile syringe and the injection stopper sterilely removed from the syringe barrel. At 48 hours post-transfection, the virus supernatant was removed from the Phoenix cells and added to the syringe barrel. The stopper was replaced and the virus supernatant was ejected dropwise into a clean, sterile conical tube. […] Polybrene was added to each viral supernatant (Sigma; 2.5 mg/ml in ddH20=500×; store at −20° C.) to a final concentration of 5 mg/ml. 4.5×10^6 Jurkat EcoR cells (Jurkat cells stably expressing the ecotropic retrovirus receptor) were pelleted for 1400 rpm for five min and resuspended in 9 mls of the OL-2 library virus supernatant. The cells were distributed in aliquots of 1 ml, or 5×10^5 cells, into the wells of a 24 well plate. 1.5×10^6 Jurkat EcoR cells were similarly treated with 3 mls each of the lacZ viral supernatant and the OL-1 viral supernatant. Each cell plate was wrapped in parafilm, placed in a microplate carrier (DuPont) and centrifuged at 2500 rpm for 90 min at 32° C. in a DuPont/Sorvall RT 6000B table top centrifuge. After centrifugation, the cells were observed under a microscope. […] The parafilm was removed from the plates, which were placed at 32° C. […]

Molecule: CN[C@@H]1C[C@H]2O[C@@](C)([C@@H]1OC)n1c3ccccc3c3c4c(c5c6ccccc6n2c5c31)C(=O)NC4 [staurosporine, Staurosporine]
- apoptosis [1]: > 99%

Molecule: Bcl2: Bcl2 protein expressed from a retroviral vector; known inhibitor of apoptosis, positive control
- inhibition of apoptosis induced by tumor necrosis factor and cycloheximide (TUNEL) [2]: able to inhibit apoptosis
- inhibition of apoptosis induced by tumor necrosis factor and cycloheximide (PI staining) [3]: able to inhibit apoptosis
- CPP32 enzyme activity (cleavage of DEVD-pNA) [4]: this rise in activity is not seen

Molecule: GKQKTKTIKGPP
- translocation of PKCa to the nucleus [5]: able to specifically inhibit translocation of activated PKCa

Molecule: MGKRKGDEVDGVGPP [OL-1]
- inhibition of Staurosporin induced apoptosis [6]: inhibit
- inhibition of Fas-mediated apoptosis [7]: inhibit
